For data set [1], the system named is primary lung fibroblasts derived from patients with IPF and non-diseased controls. Further details: method as in PMID 33730605. To be noted: unstimulated fibroblasts, 0–10 µM ACT001; cited from earlier work.
A further data set deals with RAW264.7 cells. Kind of data set: CCK-8 cell viability (cytotoxicity) assay. Type of data set: cell-based, Mouse. The protocol: CCK-8 Cell Proliferation was used to confirm the non-cytotoxic dose of those derivatives in RAW264.7 cells. However, IC50 values of those compounds show visible difference in vitro (Table 1). Considering the safety of compound 6 in RAW264.7 cells, a follow-up experiment was carried out at the concentration of 2 μM.
The toxicity of those compounds was determined by the CCK-8 assay. RAW264.7 cells were seeded in a 96-well plate at a density of 2 × 10^5/mL and a volume of 100 μL/well. After incubation for 12 h at 37 °C, the cells were then incubated with compounds at concentrations of 1.25, 2.5, 5, 10, 20, 40 and 80 μM for 24 h, followed by the addition of 10 μL CCK-8 solution to each well, and the plates were further incubated for 2 h at 37 °C. The absorbance at a wavelength of 450 nm was measured using a microplate reader (Bio-Rad Laboratories, Inc., Hercules, CA, USA).

For data set [2], the system named is LPS-induced expression of IL-1β, IL-6 and iNOS in RAW264.7 cells. In words: qRT-PCR of pro-inflammatory cytokine gene expression after LPS stimulation. The conditions noted are these: RAW264.7 cells pre-treated 2 h, LPS 1 μg/mL 6 h, RT-PCR, 2 μM. Type of data set: cell-based, Mouse. The source says: Inflammatory factors, including TNF-α, IL-1β, and IL-6, are involved in and accelerate inflammatory responses during inflammatory progression. In addition, iNOS (Nitric oxide synthase)-derived monocytes contribute to macrophage recruitment in the lung, and pulmonary-derived iNOS is detrimental during acute lung injury. Moreover, observations indicate that inhibiting iNOS can reduce inflammation in the early stages of the bleomycin model of acute lung injury. Therefore, the effective suppression of inflammation is considered an effective marker for the treatment of inflammation. To establish the efficacy of those compounds suppressing inflammatory procession, we tested pro-inflammatory cytokines that are released from the RAW264.7 cells upon LPS stimulation.
Total RNA was isolated using TRIzol reagent (Takara, Ōtsu-shi, Japan) and then transcribed into cDNA using a transcriptor cDNA synthesis kit (TransGen Biotech, Beijing, China) according to the manufacturer’s instructions. Quantitative real-time PCR was performed with TransStart® Green qPCR SuperMix (TransGen Biotech, China). The conditions for the real-time PCR reaction were as follows: 94 °C, 30 s; 94 °C, 5 s; 60 °C, 30 s; 40 cycles. The primers for this research are listed in Supplementary Material Table S1.
Figure 2 Anti-inflammation of 1–6 in RAW264.7 Cells. Expression of proinflammatory cytokines in RAW264.7 cells use RT-PCR. Cells (1 × 10^6 cells/well) were seeded into 6-well plates and then pro-treated with 1–6 for 2 h. Cells were then challenged with LPS (1 μg/mL) or medium alone for 6 h and Total RNA was extracted from cells with Trizol reagent. TNF-α: tumor necrosis factor-α; IL-1β:Interleukin-1β; L-6: Interleukin-6. Data were analyzed by One-Way ANOVA. *: p < 0.05; **: p < 0.01. ns: no significance.
(In qPCR the cycle at which signal appears reflects the starting amount.)

Data set [3] deals with TNF-α and IL-6 release from LPS-stimulated RAW264.7 cells. In words: ELISA of pro-inflammatory cytokine protein levels in culture supernatant. It counts as cell-based, Mouse. The conditions noted are these: RAW264.7 cells pre-treated 6 h, LPS 24 h.
The subject of data set [4] is BLM-induced acute lung injury in C57BL/6J mice. Kind of data set: Bleomycin-induced acute lung injury model. Type of data set: in vivo. The conditions noted are these: compound 6 10 mg/kg i.p. daily for 14 days. The protocol: To further confirm the anti-inflammation effect of compound 6 in vivo, we made the acute-lung-injury model in C57/6j mice using bleomycin. […] To further investigate the protective effect of 6 by BLM-induced ALI, the pathological changes in lung tissues were studied (Figure 5).
C57BL/6J mice (male) were purchased from Vital River Laboratories (Beijing, China). All procedures were conducted according to the Nankai University Guidelines on Animal Care, and the experimental protocol was approved by the Institutional Animal Protection Committee of the Nankai University (Tianjing, China, NO. 2022-SYDWLL-000342). Animals were sheltered under standard conditions with food and water provided ad libitum. Experiments were conducted on 8-week-old male mice, randomly divided into 4 groups: Control (Con), ALI (bleomycin), Dex (dexamethasone) and compound 6. For bleomycin-induced lung injury, mice were sedated, and a single dose of intratracheal bleomycin (4 mg/kg; Selleckchem, Houston, TX, USA) in sterile PBS. 6 was administered daily for 14 days via intraperitoneal injections (i.p) (100 μL/mouse of […] 6 in PBS). Dexamethasone (2 mg/kg) was administered orally. The mice were monitored and their weight was measured daily. After 14 days, the mice were killed with anesthetic overdose and exsanguinated by cutting the abdominal aorta before the collection of lungs.
Body weight variations were calculated from the measured weights at each time point (days 1–14), including before the sacrifice of the mice reaching the endpoints. To avoid a potential bias by studying the animals with the better outcomes, animals reaching endpoints were included in the calculation of the weight variation and survival rates.
Figure 4 Effect of compound 6 on body weight and survival after bleomycin-induced acute lung injury in mice. After bleomycin (4 mg/kg, 25 μL), mice were treated (i.p) daily with compound 6 (10 mg/kg, 100 μL) for 14 days. Body weight variations ((A), n = 12) and percentage (%) of mouse survival ((B), n = 5–12) were compared between the four groups. (Values are means ± SEM, ** p < 0.01). […]

Data set [5] in a line: Release of prodrug into active drug in HEPES buffer. Type of data set: physicochemical. To be noted: HEPES buffer pH 7.4, 37 °C, HPLC; read-out: T1/2 (conversion of prodrug 6 into compound 3) (converted). How it is done:
The Michael addition reaction has emerged as an effective synthetic strategy to improve the water solubility and pharmaceutical efficacy of active drug compounds [34]. […] In addition, the use of Michael addition products can also serve to modulate the release rate of active drugs, thereby enabling better control over the pharmacological effects of such compounds. Thus, the experiment of converting the prodrug compound (6) into compound (3) was evaluated in a HEPES buffer solution with a pH of 7.4. Compound 6 rapidly releases compound 3 under these conditions. (Figure 6, T1/2 = 2 h).
A total of 10 mg of compound 6 was dissolved in 10 mL MeCN. A 0.5 mL volume of compound 6 solution was placed in 49.5 mL of HEPES at pH 7.4. The tubes were then incubated in a bath incubator at 37 °C. Samples were removed after 10 s, and the concentration of compound 6 and 3 was analyzed by HPLC.
Figure 6 The stability of compound 6 in pH7.4 HEPES buffer.

The nature of data set [6]: Aqueous solubility measurement. It counts as physicochemical. The protocol: PTL, MCL and compounds 1–6 (0.1, 1, 10 mg) were dissolved in deionized water (pH = 7.0) until the solution was clear. The assays were measured at least in duplicate.
On the set-up of data set [7]: method as in PMID 30208745. To be noted: cited from earlier work.

Values after ≈ are worked out from the molar mass of the structure shown. “Also recorded” adds a separate entry of the source.

On to `CC1=C2CC[C@@](C)(O)[C@@H]2[C@H]2OC(=O)[C@@H](CN(C)C)[C@@H]2CC1` [ACT001], for which the IL-6 production result in data set [1] is given as “inhibited IL-6”.
In the data set on RAW264.7 cells (Mus musculus, RAW264.7, 24 h, RAW264.7 cells, CCK-8, 24 h incubation, means of three independent experiments), `COc1cc(C=CC(=O)OCC2=CCCC3(C)OC3C3OC(=O)C(CN(C)C)C3CC2)ccc1O` [Compound 6, ((1aR,7aS,8R,10aS,10bS,E)-8-((dimethylamino)methyl)-1a-methyl-9-oxo-1a,2,3,6,7,7a,8,9,10a,10b-decahydrooxireno[2′,3′:9,10]cyclodeca[1,2-b]furan-5-yl)methyl (E)-3-(4-hydroxy-3-methoxyphenyl)acrylate 2-hydroxypropane-1,2,3-tricarboxylate] had a 50% inhibitory concentration (IC50) of 6.95 ± 1.09 µM. The “decline in cytotoxic effect compared to parent compound 3” value with RAW264.7 cells (RAW264.7 cell line, versus compound 3) is 2 fold. Also, the “gene expression of pro-inflammatory cytokines (IL-1β, IL-6, iNOS)” value in data set [2] was “comparable activities; also recorded: could significantly reduce inflammation of RAW264.7 cells induced by LPS”. Besides, the “protein levels / release of pro-inflammatory cytokines (TNF-α and)” value in data set [3] is on record as “could also inhibit the release of pro-inflammatory cytokines in vitro”. The survival rate result in data set [4] was “did not reverse the survival rate”. Further, in data set [4] (10 mg/kg), the “acute lung injury / lung pathology (H&E: inflammatory cell infiltration, edema, alveolar structure)” value is “reduced inflammatory cell infiltration and edema in lung tissue of mice, and improved alveolar structure; also recorded: ameliorated inflammatory cell infiltration and edema in lung tissue; also recorded: could significantly decrease the acute lung injury induced by bleomycin”; the body weight loss result is “prevented the weight loss significantly”. For the same molecule, in data set [5], the half-life at 10 µg/mL was 2 h. Further, the “water solubility (in words)” value in data set [6] (pH 7.0) is “outstanding water solubility; also recorded: significantly improved water solubility; also recorded: good water solubility; also recorded: more soluble than the reference compound 3”. For the same molecule, the solubility in data set [6] (thermodynamic from solid, deionized water, pH = 7.0, at least in duplicate, read-out: Aqueous Solubility IC50) turned out to be 2.5 mg/mL (≈ 5.15 mM).
With `C/C1=C\CC[C@@]2(C)O[C@@H]2[C@H]2OC(=O)[C@H](CN(C)C)[C@@H]2CC1` [DMAPT], the “solubility relative to parent compound parthenolide” value in data set [7] is “more than 1000 times”.

Broadly, the IC50 is the midpoint of a concentration-inhibition curve. A high value points to a need for much substance. Broadly, the solubility is the concentration that dissolves in the medium under given conditions.

The values are drawn from publication PMC10933920, “Synthesis and Anti-Inflammatory Activity of Ferulic Acid-Sesquiterpene Lactone Hybrids” (Molecules, 2024).
